The record followed here is paper PMC7356228, “Alvaxanthone, a Thymidylate Synthase Inhibitor with Nematocidal and Tumoricidal Activities” (Molecules, 2020).

Where two headings read alike, the source gives them in different places.

In data set [1] the test system is U-118 MG human glioblastoma cells. As to the kind of experiment: Cytotoxicity, neutral red uptake (NR) assay. The format is cell-based. The note with it: U-118 MG. As for the experimental part: (§1) Biological effect of alvaxanthone and rheediaxanthone B on normal (BJ) and cancer cells (U-118 MG and SCC-15) was estimated using two viability assays, the neutral red uptake (NR) and tetrazolium salts reduction (XTT) assays.
(§2) Human glioblastoma cells U-118 MG (ATCC® HTB-15), human squamous carcinoma cells SCC-15 (ATCC® CRL-1623), and normal human skin fibroblasts (ATCC® CRL-2522) were grown, their morphology checked, and number and viability estimated as earlier presented.
(§3) Influence of selected compounds on cells was tested by performing the cytotoxicity (NR and XTT) assays, proliferation assay, cell adhesion assay, cell migration assay, determination of intracellular ATP level, and apoptosis assay as previously reported.

Data set [2] has as its system SCC-15 human squamous carcinoma cells. As to the kind of experiment: Cytotoxicity, neutral red uptake (NR) assay. The format is cell-based. The following applies: for IC50: read-out: IC50. The procedure:
as §1, §2, §3

In data set [3] the test system is BJ, U-118 MG and SCC-15 cells. As to the kind of experiment: NR assay, summary over the three cell lines. The format is cell-based, human. The following applies: 48 h, span over BJ. The procedure:
as §1
Thus, alvaxanthone may be damaging mitochondria and impairing their metabolism exerting one of possible mechanisms active in destroying cancer cells. Changes of cell morphology in dependence on increasing alvaxanthone and rheediaxanthone B concentration were also recorded. While the glioma and squamous carcinoma cells formed clusters, lost their adhesion, shrank, and accumulated less NR dye, normal fibroblasts preserved rather normal shapes but the amount of the neutral red dye and confluence of cells decreased. In addition, a lower number of BJ cells was detected (Figure 1B).
as §3

The test system of a further data set is U-118 MG cells. As to the kind of experiment: Cell adhesion, crystal violet assay. The format is cell-based, human. The following applies: 48-h treatment. As for the experimental part:
(§4) Cancer metastasis, resulting from an impairment of adhesion between cancer cells and the extracellular matrix may cause cell migration from a primary tumor into distant parts of an organism. The cristal violet assay was used to examine alvaxanthone and rheediaxanthone B ability to influence cellular adhesion.
(§5) Figure 3 Influence of alvaxanthone or rheediaxanthone B on BJ, U-118 MG, and SCC-15 cells adhesion after 48-h treatment. The crystal violet assay was used. Results are medians of triplicate assays of three independent experiments expressed as a % of non-treated controls. The whiskers are lower (25%) and upper (75%) quartile ranges. * p ≤ 0.05, Kruskal–Wallis test (against non-treated control).
as §3

The test system of another data set is BJ cells. As to the kind of experiment: Cell adhesion, crystal violet assay. The note with it: 48-h treatment. The format is cell-based, human. As for the experimental part: as §4, §5, §3
For a further data set, the system named is SCC-15 cells. As to the kind of experiment: Cell adhesion, crystal violet assay. It is filed as cell-based, human. The note with it: 48-h treatment. As for the experimental part: as §4, §5, §3
The nature of data set [4]: Cytotoxicity, neutral red uptake (NR) assay. It is filed as cell-based, human. The note with it: human, BJ normal skin fibroblasts; NR assay, 40 µM, 48 h, fibroblasts. The procedure: as §1, §2, §3
Data set [5] concerns BJ normal human skin fibroblasts. As to the kind of experiment: Cytotoxicity, neutral red uptake (NR) assay. The format is cell-based. The following applies: Homo sapiens, Skin fibroblast; neutral red assay, BJ; read-out: IC50. As for the experimental part:
as §1, §2, §3

As usually defined, the viability is a per cent measure of how many cells are alive, often set against a control. By IC50 is commonly meant the concentration that inhibits the measured activity by half. For the compound `C=CC(C)(C)c1c(O)cc2oc3c(O)c(O)cc(CC=C(C)C)c3c(=O)c2c1O` [Alvaxanthone (15), Alvaxanthone], the viability at 40 µM in data set [1] (NR assay, 40 µM, 48 h) came out at 10%; in data set [2] (Homo sapiens, NR assay, 40 µM, 48 h) it was 1.5%. In addition, the IC50 in data set [1] (neutral red assay, read-out: IC50) was 13.1 µM; in data set [2] (Homo sapiens, SCC-15, neutral red assay) it was 17 µM; in data set [2] (neutral red assay), 17.7 µM; in data set [3] (Homo sapiens), > 15 µM; in data set [3], < 18 µM; in data set [5] it was 15.8 µM. The “concentration at which reduction of adhesion is significant/apparent” value with U-118 MG cells is reported as 40 µM; with BJ cells, 20 µM; in the data set with SCC-15 cells it was 20 µM. This compound showed a viability at 48 h, 40 µM in data set [4] of 35%.
